Assay: wn = mass fraction of the nth substance listed
Conditions: Liquid; for mass density: Other PVT measurement; for viscosity: 17000 kPa, high pressure falling cylinger viscometer

CC(=O)OC[C@H]1O[C@@H](OC(C)=O)[C@H](OC(C)=O)[C@@H](OC(C)=O)[C@H]1OC(C)=O [β-D-galactose pentaacetate] + O=C=O
mass density [kg/m3]
Conditions | w1 = 0.206 | w1 = 0.259
308 K, 10600 kPa | 930 | 990
308 K, 11000 kPa | – | 1000
308 K, 11400 kPa | 940 | –
308 K, 11700 kPa | – | 1010
308 K, 12300 kPa | 950 | –
308 K, 12400 kPa | – | 1020
308 K, 13300 kPa | – | 1030
308 K, 13700 kPa | 960 | –
308 K, 14900 kPa | – | 1040
308 K, 15000 kPa | 970 | –
308 K, 15500 kPa | 970 | –
308 K, 17100 kPa | – | 1060
313 K, 11900 kPa | – | 970
313 K, 12100 kPa | 940 | –
313 K, 12600 kPa | – | 980
313 K, 12700 kPa | 940 | –
313 K, 13300 kPa | – | 980
313 K, 13600 kPa | 950 | –
313 K, 14200 kPa | – | 990
313 K, 15100 kPa | 960 | 1000
313 K, 15800 kPa | – | 1010
313 K, 16200 kPa | 970 | –
313 K, 17300 kPa | – | 1020
313 K, 17500 kPa | 980 | –
313 K, 18500 kPa | 980 | –
313 K, 19400 kPa | 980 | –
313 K, 19800 kPa | – | 1040
318 K, 14400 kPa | 930 | –
318 K, 15100 kPa | 940 | –
318 K, 15900 kPa | 940 | –
318 K, 16700 kPa | 950 | –
318 K, 17900 kPa | 960 | –
318 K, 20300 kPa | 970 | –
323 K, 15500 kPa | 930 | –
323 K, 16000 kPa | 940 | –
323 K, 16600 kPa | 940 | –
323 K, 17700 kPa | 950 | –
323 K, 18900 kPa | 960 | –

318 K
Conditions | viscosity [mPa·s]
w1 = 0.18 | 0.095
w1 = 0.25 | 0.103

Source: the NIST ThermoML archive (doi:10.1016/j.fluid.2005.11.013)
